This note sets out measurements from patent publication US10501479B2, “Benzenesulfonyl-asymmetric ureas and medical uses thereof” (HELSINN HEALTHCARE SA, priority 2016, dated 2019).

Like-named read-outs stand apart in the source and are kept apart here.

Format in all cases: cell-based
Assay [1] has as its target T1, GHSR-1a (HEK293/GHSR1a cell line) (Homo sapiens, UniProt Q92847).
T1 construct: expressed in transfected cells; host or cells: HEK293/GHSR1a cell line
Put plainly: Ghrelin agonist potency (EC50) with calcium FLIPR assay. In a few lines:
(§1)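 Potency values were estimated from dose-response curves of relative fluorescence, with calcium followed for 2 minutes after additions at t=20 sec. Agonism was tested with compound alone. Antagonism was tested with compound plus 10 nM ghrelin and scored as a reduction of the ghrelin signal.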

The target of assay [2] is T1, GHSR-1a (HEK293/GHSR1a cell line). Put plainly: Ghrelin antagonist potency (IC50) with calcium FLIPR assay, ghrelin 10 nM. In a few lines: as §1
Assay [3] concerns the target T2, recombinant human ghrelin receptor (HEK293/GRLN) (Homo sapiens, UniProt Q92847).
T2 construct: expressed in transfected cells
As to the kind of experiment: Ghrelin inverse agonist potency (EC50) with IP-1 (IP-One HTRF) assay. To be noted: IP-1 assay. In a few lines:
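HEK293/GRLN cells were seeded 18-22 hours before the test, then exposed to compound in stimulation buffer for 1 hour at 37° C, 5% CO2. IP-1 was detected by IP-One HTRF (IP1-d2 plus Tb-cryptate, 1 hour RT), reading 620 and 665 nm; the inverse agonist EC50 was derived from this.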

The mark [4] stands for this setting: HEK293/GHSR1a, read-out: Activity EC50/EMax: EC50 (ghrelin agonist potency).
Where [5] appears, read: HEK293/GHSR1a, ghrelin 10 nM, read-out: Activity IC50 (ghrelin antagonist potency).
[6] abbreviates: HEK293/GRLN, read-out: Activity EC50 (ghrelin inverse agonist potency).
The mark [7] stands for this setting: ghrelin agonist potency, read-out: Activity EC50/EMax.
Where [8] appears, read: ghrelin antagonist potency, read-out: Activity IC50.
Setting [9] is: ghrelin inverse agonist potency, read-out: Activity EC50.

T2 sequence (Q92847 whole entry): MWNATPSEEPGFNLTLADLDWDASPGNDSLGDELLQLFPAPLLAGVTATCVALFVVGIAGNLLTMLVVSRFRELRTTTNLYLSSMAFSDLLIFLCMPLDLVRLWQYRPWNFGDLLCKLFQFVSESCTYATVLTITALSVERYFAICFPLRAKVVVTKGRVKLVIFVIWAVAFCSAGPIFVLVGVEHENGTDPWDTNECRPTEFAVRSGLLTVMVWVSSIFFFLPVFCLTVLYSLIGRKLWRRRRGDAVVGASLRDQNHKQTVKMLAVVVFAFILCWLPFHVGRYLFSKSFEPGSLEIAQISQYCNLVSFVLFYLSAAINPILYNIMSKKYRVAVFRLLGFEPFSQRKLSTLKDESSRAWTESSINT
T1 sequence (Q92847 whole entry): as above

Take `CC(NC(=O)Nc1ccc(S(=O)(=O)Cc2cc3c(cc2F)CN(C)CC3)cc1)c1cccc(Cl)c1Cl` (stereo not drawn) [H1366, 1-(1-(2,3-dichlorophenyl)ethyl)-3-(4-(((7-fluoro-2-methyl-1,2,3,4-tetrahydroisoquinolin-6-yl)methyl)sulfonyl)phenyl)urea]: the results for the EC50 in assay [1] (setting [4]) and in assay [3] (setting [6]) were > 30000 nM and 2.5 nM, respectively. Moreover, the IC50 in assay [2] (setting [5]) was determined as 21.5 nM.
In the case of `CC(NC(=O)Nc1ccc(S(=O)(=O)Cc2ccc3c(c2)CNC3)cc1-c1ccnn1C)c1ccccc1` (stereo not drawn) [H1528, 1-(4-((isoindolin-5-ylmethyl)sulfonyl)-2-(1-methyl-1H-pyrazol-5-yl)phenyl)-3-(1-phenylethyl)urea], the values for the EC50 in assay [1] (setting [7]) and in assay [3] (setting [9]) were > 30000 nM and 83.3 nM, respectively. Besides, the IC50 in assay [2] (setting [8]) stood at 581 nM.
Turning to `CC(NC(=O)Nc1ccc(S(=O)(=O)Cc2ccc3c(c2)CNC3)cc1C(=O)O)c1cccc(Cl)c1Cl` (stereo not drawn) [H1549, 2-(3-(1-(2,3-dichlorophenyl)ethyl)ureido)-5-((isoindolin-5-ylmethyl)sulfonyl)benzoic acid], the EC50 in assay [1] (setting [7]) is > 30000 nM; in assay [3] (setting [9]) it was 1.2 nM. For the same compound, in assay [2] (setting [8]), the IC50 was determined as 1.69 nM.
In the case of `COc1ccc(C(C)NC(=O)Nc2ccc3c(c2)C=C(c2ccc4c(c2)CN(Cc2ccccc2)C4)S3(=O)=O)cc1` (stereo not drawn) [H1296, 1-(2-(2-benzylisoindolin-5-yl)-1,1-dioxidobenzo[b]thiophen-5-yl)-3-(1-(4-methoxyphenyl)ethyl)urea], the results for the EC50 in assay [1] (setting [4]) and in assay [3] (setting [6]) were 13200 nM and 4920 nM, respectively. The IC50 in assay [2] (setting [5]) is > 30000 nM.
On to `CC(NC(=O)Nc1ccc(S(=O)(=O)Cc2ccc3c(c2)CNC3)cc1-c1cccnc1)c1ccccc1` (stereo not drawn) [H1533, 1-(4-((isoindolin-5-ylmethyl)sulfonyl)-2-(pyridin-3-yl)phenyl)-3-(1-phenylethyl)urea], for which the values for the EC50 in assay [1] (setting [7]) and in assay [3] (setting [9]) were > 30000 nM and 76.2 nM, respectively. Besides, the IC50 in assay [2] (setting [8]) was determined as 1700 nM.
For the compound `CC(NC(=O)N(O)c1ccc(S(=O)(=O)Cc2ccc3c(c2)CNC3)cc1)c1ccccc1` (stereo not drawn) [H1473, 1-hydroxy-1-(4-((isoindolin-5-ylmethyl)sulfonyl)phenyl)-3-(1-phenylethyl)urea], the results for the EC50 in assay [1] (setting [7]) and in assay [3] (setting [9]) were > 30000 nM and 515 nM, respectively. For the same compound, the IC50 in assay [2] (setting [8]) was determined as 2240 nM.
Take `CC(=O)N1CC(NC(=O)Nc2ccc(S(=O)(=O)Cc3ccc4c(c3)CN(C)C4)cc2)c2ccccc21` (stereo not drawn) [H1354, 1-(1-acetylindolin-3-yl)-3-(4-(((2-methylisoindolin-5-yl)methyl)sulfonyl)phenyl)urea]: the EC50 in assay [1] (setting [4]) is > 30000 nM; in assay [3] (setting [6]) it was 8610 nM. Besides, in assay [2] (setting [5]), the IC50 was 8900 nM.
Taken in the same sequence, the figures for `CC(NC(=O)Nc1ccc(S(=O)(=O)Cc2ccc3c(c2)CN(C)C3)cc1)c1ccc2c(c1)OCO2` (stereo not drawn) [H1453, 1-(1-(benzo[d][1,3]dioxol-5-yl)ethyl)-3-(4-(((2-methylisoindolin-5-yl)methyl)sulfonyl)phenyl)urea] were > 30000 nM, 46.8 nM and 109 nM.
Taken in the same sequence, the figures for `CC(NC(=O)N(C)c1ccc(S(=O)(=O)Cc2ccc3c(c2)CN(C)C3)cc1)c1ccccc1` (stereo not drawn) [H1377, 1-methyl-1-(4-(((2-methylisoindolin-5-yl)methyl)sulfonyl)phenyl)-3-(1-phenylethyl)urea] were > 30000 nM, 384 nM and 5520 nM.
Taken in the same sequence, the figures for `COc1cc(S(=O)(=O)Cc2ccc(CO)cc2)ccc1NC(=O)NC(C)c1cccc(Cl)c1Cl` (stereo not drawn) [H1434, 1-(1-(2,3-dichlorophenyl)ethyl)-3-(4-((4-(hydroxymethyl)benzyl)sulfonyl)-2-methoxyphenyl)urea] were > 30000 nM, 61.2 nM and 857 nM.
Consider `CCN(CC)Cc1ccc(CS(=O)(=O)c2ccc(NC(=O)NC(C)c3ccccc3)cc2)cc1` (stereo not drawn) [H1304, 1-(4-((4-((diethylamino)methyl)benzyl)sulfonyl)phenyl)-3-(1-phenylethyl)urea], for which the results for the EC50 in assay [1] (setting [4]) and in assay [3] (setting [6]) were > 30000 nM and 182 nM, respectively. The IC50 in assay [2] (setting [5]) was determined as 145 nM.
For `COc1cc(S(=O)(=O)Cc2ccc(CO)cc2)ccc1NC(=O)NC(C)c1ccc(OC)c(Cl)c1Cl` (stereo not drawn) [H1435, 1-(1-(2,3-dichloro-4-methoxyphenyl)ethyl)-3-(4-((4-(hydroxymethyl)benzyl)sulfonyl)-2-methoxyphenyl)urea] the same measures were > 30000 nM, > 10000 nM and > 30000 nM.
Take `CC(c1ccccc1)N(C)C(=O)Nc1ccc(S(=O)(=O)Cc2ccc3c(c2)CN(C)C3)cc1O` (stereo not drawn) [H1474, 3-(2-hydroxy-4-(((2-methylisoindolin-5-yl)methyl)sulfonyl)phenyl)-1-methyl-1-(1-phenylethyl)urea]: the figures for the EC50 in assay [1] (setting [7]) and in assay [3] (setting [9]) were > 30000 nM and 133 nM, respectively. The IC50 in assay [2] (setting [8]) came to 700 nM.
Regarding `COc1ccc(C(C)NC(=O)Nc2ccc(S(=O)(=O)Cc3ccc4c(c3)CN(C)C4)cc2)cc1OC` (stereo not drawn) [H1449, 1-(1-(3,4-dimethoxyphenyl)ethyl)-3-(4-(((2-methylisoindolin-5-yl)methyl)sulfonyl)phenyl)urea], the EC50 in assay [1] (setting [4]) is > 30000 nM; in assay [3] (setting [6]) it was 928 nM. Besides, the IC50 in assay [2] (setting [5]) was 4170 nM.
Consider `CC(c1ccccc1)N(C)C(=O)Nc1ccc(S(=O)(=O)Cc2ccc3c(c2)CCNC3)cc1F` (stereo not drawn) [H1414, 3-(2-fluoro-4-(((1,2,3,4-tetrahydroisoquinolin-6-yl)methyl)sulfonyl)phenyl)-1-methyl-1-(1-phenylethyl)urea], for which the results for the EC50 in assay [1] (setting [4]) and in assay [3] (setting [6]) were > 30000 nM and 589 nM, respectively. In addition, the IC50 in assay [2] (setting [5]) amounted to 2090 nM.
For `O=C(Nc1ccc(S(=O)(=O)Cc2ccc3c(c2)CNC3)cc1)N(O)Cc1ccccc1` [H1502, 1-benzyl-1-hydroxy-3-(4-((isoindolin-5-ylmethyl)sulfonyl)phenyl)urea], the EC50 was > 30000 nM in assay [1] (setting [7]) and 35.1 nM in assay [3] (setting [9]). In addition, in assay [2] (setting [8]), the IC50 worked out at 164 nM.
Taken in the same sequence, the figures for `CC(NC(=O)Nc1ccc(S(=O)(=O)Cc2ccc3c(c2)CNC3)cc1-c1ccncc1)c1ccccc1` (stereo not drawn) [H1534, 1-(4-((isoindolin-5-ylmethyl)sulfonyl)-2-(pyridin-4-yl)phenyl)-3-(1-phenylethyl)urea] were > 30000 nM, 89.5 nM and 1660 nM.
Regarding `CC(c1ccccc1)n1c(=O)[nH]c2ccc(S(=O)(=O)Cc3ccc4c(c3)CN(C)C4)cc2c1=O` (stereo not drawn) [H1470, 6-(((2-methylisoindolin-5-yl)methyl)sulfonyl)-3-(1-phenylethyl)quinazoline-2,4(1H,3H)-dione], the EC50 in assay [1] (heading: Activity EC50/EMax, ghrelin agonist potency, read-out: Activity EC50/EMax) is 227 nM; in assay [3] (setting [9]), 22.3 nM. Besides, the IC50 in assay [2] (setting [8]) was 483 nM.
For the compound `CN1Cc2ccc(CS(=O)(=O)c3ccc(NC(=O)N[C@@H]4CCCc5ccccc54)cc3)cc2C1` [H1336, (R)-1-(4-(((2-methylisoindolin-5-yl)methyl)sulfonyl)phenyl)-3-(1,2,3,4-tetrahydronaphthalen-1-yl)urea], the EC50 in assay [1] (setting [4]) was > 30000 nM; in assay [3] (setting [6]) it was 263 nM. The IC50 in assay [2] (setting [5]) is 381 nM.
`O=C(Nc1ccc(S(=O)(=O)Cc2ccc3c(c2)CNC3)cc1)NC1COc2ccccc21` (stereo not drawn) [H1330, 1-(2,3-dihydrobenzofuran-3-yl)-3-(4-((isoindolin-5-ylmethyl)sulfonyl)phenyl)urea]: the EC50 in assay [1] (setting [4]) is > 30000 nM; in assay [3] (setting [6]), 142 nM. For the same compound, in assay [2] (setting [5]), the IC50 was determined as 147 nM.
